# Reference: ChEMBL document CHEMBL2203190, “Sesquiterpenoids from Atractylodes macrocephala act as farnesoid X receptor and progesterone receptor modulators” (Bioorg Med Chem Lett, 2012)
# Active and inactive are the calls of the source. No cut-off for these calls is given here.
# Tests used:
# [1] = target: T1, Bile acid receptor (Homo sapiens) (UniProt Q96RI1); assay: Agonist activity at human FXR expressed in human HepG2 cells assessed as transactivation of SHP gene at 400 uM by measuring relative luciferase activity by transient transfection reporter assay; type: functional, cell-based
# T1 sequence (whole entry): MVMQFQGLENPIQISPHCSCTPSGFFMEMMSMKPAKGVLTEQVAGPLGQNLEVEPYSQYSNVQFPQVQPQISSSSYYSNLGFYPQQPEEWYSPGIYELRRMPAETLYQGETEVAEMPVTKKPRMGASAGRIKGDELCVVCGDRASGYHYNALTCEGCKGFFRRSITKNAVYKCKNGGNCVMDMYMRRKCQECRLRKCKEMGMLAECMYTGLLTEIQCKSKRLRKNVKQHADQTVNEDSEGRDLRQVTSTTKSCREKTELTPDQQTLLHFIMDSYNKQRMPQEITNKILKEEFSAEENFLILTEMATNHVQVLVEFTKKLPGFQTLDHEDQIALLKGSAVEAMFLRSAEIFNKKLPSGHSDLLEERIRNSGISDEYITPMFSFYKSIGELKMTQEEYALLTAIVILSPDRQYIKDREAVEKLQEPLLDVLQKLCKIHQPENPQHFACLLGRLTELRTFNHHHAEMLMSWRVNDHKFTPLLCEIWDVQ
# [2] = target: T1, Bile acid receptor (Homo sapiens); assay: Antagonist activity at human FXR expressed in human HepG2 cells assessed as inhibition of CDCA-induced transactivation of SHP gene at 100 uM by measuring relative luciferase activity by transient transfection reporter assay relative to control; type: functional, cell-based
# [3] = target: T1, Bile acid receptor (Homo sapiens); assay: Antagonist activity at human FXR expressed in human HepG2 cells assessed as inhibition of CDCA-induced transactivation of SHP gene at 50 uM by measuring relative luciferase activity by transient transfection reporter assay relative to control; type: functional, cell-based
# [4] = target: T2, Progesterone receptor (Homo sapiens) (UniProt P06401); assay: Agonist activity at human PR expressed in human HepG2 cells assessed as MMTV gene promoter transactivation at 100 uM by measuring relative luciferase activity by transient transfection reporter assay relative to control; type: functional, cell-based
# T2 sequence (whole entry): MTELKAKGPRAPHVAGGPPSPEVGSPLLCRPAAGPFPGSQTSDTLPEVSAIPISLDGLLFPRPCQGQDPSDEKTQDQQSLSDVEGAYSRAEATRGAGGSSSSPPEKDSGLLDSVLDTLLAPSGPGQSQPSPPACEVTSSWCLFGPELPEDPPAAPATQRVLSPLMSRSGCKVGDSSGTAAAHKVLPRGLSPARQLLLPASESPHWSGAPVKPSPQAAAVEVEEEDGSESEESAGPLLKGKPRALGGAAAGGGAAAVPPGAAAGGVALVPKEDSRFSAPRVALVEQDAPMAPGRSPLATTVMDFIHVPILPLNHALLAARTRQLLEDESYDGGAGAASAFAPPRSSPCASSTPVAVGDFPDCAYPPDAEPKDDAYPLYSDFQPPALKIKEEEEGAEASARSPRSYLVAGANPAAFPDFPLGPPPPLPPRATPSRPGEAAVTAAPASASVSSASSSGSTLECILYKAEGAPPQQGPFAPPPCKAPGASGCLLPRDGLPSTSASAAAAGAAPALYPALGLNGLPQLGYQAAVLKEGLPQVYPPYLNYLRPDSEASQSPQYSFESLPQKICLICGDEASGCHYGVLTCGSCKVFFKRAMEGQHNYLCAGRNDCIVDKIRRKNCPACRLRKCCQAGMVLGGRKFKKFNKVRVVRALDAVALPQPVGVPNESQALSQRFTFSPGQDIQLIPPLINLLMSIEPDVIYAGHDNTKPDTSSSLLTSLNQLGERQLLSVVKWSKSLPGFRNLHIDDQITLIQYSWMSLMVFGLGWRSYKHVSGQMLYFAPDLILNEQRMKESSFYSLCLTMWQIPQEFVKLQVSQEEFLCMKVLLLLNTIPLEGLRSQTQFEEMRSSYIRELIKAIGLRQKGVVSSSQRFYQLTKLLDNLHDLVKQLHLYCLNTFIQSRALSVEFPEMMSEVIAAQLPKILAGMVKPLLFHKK
# [5] = target: T1, Bile acid receptor (Homo sapiens); assay: Antagonist activity at human FXR expressed in human HepG2 cells assessed as inhibition of CDCA-induced transactivation of SHP gene at 10 uM by measuring relative luciferase activity by transient transfection reporter assay relative to control; type: functional, cell-based
# [6] = target: T1, Bile acid receptor (Homo sapiens); assay: Antagonist activity at human FXR expressed in human HepG2 cells assessed as inhibition of CDCA-induced transactivation of SHP gene by measuring relative luciferase activity by transient transfection reporter assay relative to control; type: functional, cell-based
# [7] = target: T1, Bile acid receptor (Homo sapiens); assay: Antagonist activity at human FXR expressed in human HepG2 cells assessed as upregulation of CYP7A1 gene transactivation at 10 uM by measuring relative luciferase activity by transient transfection reporter assay relative to control; type: functional, cell-based
# [8] = target: T1, Bile acid receptor (Homo sapiens); assay: Antagonist activity at human FXR expressed in human HepG2 cells assessed as upregulation of CYP7A1 gene transactivation at 100 uM by measuring relative luciferase activity by transient transfection reporter assay relative to control; type: functional, cell-based
# [9] = target: T2, Progesterone receptor (Homo sapiens); assay: Agonist activity at human PR expressed in human HepG2 cells assessed as MMTV gene promoter transactivation at 10 uM by measuring relative luciferase activity by transient transfection reporter assay relative to control; type: functional, cell-based
# [10] = target: Cellular tumor antigen p53 (Homo sapiens) (UniProt P04637); assay: Transactivation of p53 in human HepG2 cells expressing MDM2 promoter by transient transfection reporter assay; type: cell-based
# HepG2 = assay: Cytotoxicity against human HepG2 cells; type: cell-based
# Cellular tumor antigen p53 (Homo sapiens), sequence (P04637 whole entry, looked up): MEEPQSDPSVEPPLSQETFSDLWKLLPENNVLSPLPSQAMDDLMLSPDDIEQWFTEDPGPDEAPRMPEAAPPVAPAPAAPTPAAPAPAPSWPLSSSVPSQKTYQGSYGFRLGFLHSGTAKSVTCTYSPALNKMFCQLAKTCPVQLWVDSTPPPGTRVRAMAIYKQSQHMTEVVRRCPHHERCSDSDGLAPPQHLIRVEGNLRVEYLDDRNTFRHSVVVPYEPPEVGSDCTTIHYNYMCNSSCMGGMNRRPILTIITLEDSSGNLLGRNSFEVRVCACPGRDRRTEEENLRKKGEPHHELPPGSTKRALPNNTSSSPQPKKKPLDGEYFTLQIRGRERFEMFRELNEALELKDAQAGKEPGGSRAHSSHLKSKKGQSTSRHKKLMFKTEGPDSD
SMILES,Activity [1],RLU [2],inhibition [3],Activity [4],RLU [5],inhibition [6],fold change (FC) [7],fold change (FC) [8],RLU [4],RLU [9],Activity [10],Activity (HepG2)
C=C1CCC[C@]2(C)C[C@@H]3OC(=O)C(C)=C3C[C@@H]12,inactive,0.9,50%,inactive,1.5,Dose-dependent effect,1.5,2,,,,
C=C1CCC[C@]2(C)C[C@]3(O)OC(=O)C(C)=C3C[C@@H]12,inactive,0.85,50%,,1.7,Dose-dependent effect,1.5,,3.39,1.57,,
CC(=O)[C@H]1CC[C@H]2[C@@H]3CCC4=CC(=O)CC[C@]4(C)[C@H]3CC[C@]12C,,,,,,,,,,2.38,,
C=C1CCC[C@]2(C)C=C3OC(=O)C(C)=C3C[C@@H]12 [ATRACTYLENOLIDE I],,,,,,,,,,,Active,Toxic
